How the values were obtained:
[1] = molecular target: T1, CXCR3 (Homo sapiens, UniProt P49682); test: [3H]-VUF11211 radioligand displacement after LC nanofractionation, HEK293/CXCR3 membranes; format: binding
T1 construct: human CXCR3 in HEK293/CXCR3 membranes
T1 sequence (P49682 1-368): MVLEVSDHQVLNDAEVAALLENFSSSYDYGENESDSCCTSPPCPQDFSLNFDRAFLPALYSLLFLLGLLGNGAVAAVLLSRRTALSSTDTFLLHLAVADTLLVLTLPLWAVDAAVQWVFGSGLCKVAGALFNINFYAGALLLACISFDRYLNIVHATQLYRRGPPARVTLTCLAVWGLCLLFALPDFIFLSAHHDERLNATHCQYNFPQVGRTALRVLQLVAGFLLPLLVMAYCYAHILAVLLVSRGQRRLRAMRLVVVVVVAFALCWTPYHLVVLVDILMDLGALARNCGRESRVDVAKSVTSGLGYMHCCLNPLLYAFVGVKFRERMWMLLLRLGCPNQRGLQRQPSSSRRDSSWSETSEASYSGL

[2] = molecular target: T1, CXCR3; test: [3H]-VUF11211 radioligand displacement after LC nanofractionation, HEK293/CXCR3 membranes; […]-CXCL10 displacement also shown; format: binding

SMILES: CCOc1ccc(-n2c([C@@H](C)N(Cc3cccnc3)C(=O)Cc3ccc(F)c(C(F)(F)F)c3)nc3ncccc3c2=O)cc1 [NBI-74330]
- Ki [1]: 12.6 nM

SMILES: CCNC(=O)c1cnc(N2CCN(C3CCN(Cc4ccc(Cl)cc4)CC3)[C@@H](CC)C2)c(Cl)c1 [VUF11211]
- Kd [2]: 0.501 nM

Reference: publication PMC4551560, “Metabolic profiling of ligands for the chemokine receptor CXCR3 by liquid chromatography-mass spectrometry coupled to bioaffinity assessment” (Analytical and Bioanalytical Chemistry, 2015)
